According to the supplement of paper PMC10721915:
± gives the standard deviation of the averaged measurements.

Compound: COc1ccc([C@@H](O)c2cc(-c3ncnc4cc(N5CCOCC5)ccc34)c(F)cc2Cl)nn1 [peposertib]
Assay: relative cell growth vs untreated control (GI, NCI-DTP normalisation with time-zero) (fraction of control growth); higher = more growth / less inhibition
Conditions: treatment time: 120 h
Procedure: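 Cancer cell lines were treated with peposertib (DNA-PK inhibitor) combined with gamma ionizing radiation (0, 2, 3 or 6 Gy) for 120 h, starting 48 h after seeding. Read-out was sulforhodamine B total-protein staining, normalised to untreated control and time-zero wells (NCI-DTP GI convention).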

[1] = peposertib concentration 0.00488 µM, gamma irradiation dose (Gy): 0
[2] = peposertib concentration 0.0195 µM, gamma irradiation dose (Gy): 0
[3] = peposertib concentration 0.0781 µM, gamma irradiation dose (Gy): 0
[4] = peposertib concentration 0.313 µM, gamma irradiation dose (Gy): 0
[5] = peposertib concentration 1.25 µM, gamma irradiation dose (Gy): 0
[6] = peposertib concentration 5 µM, gamma irradiation dose (Gy): 0
[7] = peposertib concentration 0.00488 µM, gamma irradiation dose (Gy): 3
[8] = peposertib concentration 0.0195 µM, gamma irradiation dose (Gy): 3
[9] = peposertib concentration 0.0781 µM, gamma irradiation dose (Gy): 3
[10] = peposertib concentration 0.313 µM, gamma irradiation dose (Gy): 3
[11] = peposertib concentration 1.25 µM, gamma irradiation dose (Gy): 3
[12] = peposertib concentration 5 µM, gamma irradiation dose (Gy): 3

Test System	relative cell growth [1]	relative cell growth [2]	relative cell growth [3]	relative cell growth [4]	relative cell growth [5]	relative cell growth [6]	relative cell growth [7]	relative cell growth [8]	relative cell growth [9]	relative cell growth [10]	relative cell growth [11]	relative cell growth [12]
A204	1.06	1.01	0.892	0.616	0.298	0.0711	–	–	–	–	–	–
A549	1.031 ± 0.01	1.02 ± 0.014	0.966 ± 0.019	0.782 ± 0.071	0.442 ± 0.079	0.113 ± 0.013	0.766	0.613	0.256	0.0863	0.0255	0.0147
A2780	1.03	1.04	1.02	0.999	0.858	0.156	–	–	–	–	–	–
ASPC1	1.1	0.966	1	0.891	0.67	0.22	–	–	–	–	–	–
BXPC3	0.935	0.946	0.903	0.789	0.437	0.137	–	–	–	–	–	–
CACO2	0.994 ± 0.066	0.959 ± 0.018	0.92 ± 0.033	0.85 ± 0.0095	0.644 ± 0.03	0.238 ± 0.01	0.722	0.713	0.595	0.322	0.195	0.098
COLO205	0.984 ± 0.071	0.996 ± 0.039	1.01 ± 0.044	0.969 ± 0.029	0.7949 ± 0.007	0.351 ± 0.04	0.413	0.367	0.203	0.0736	0.0589	0.0686
DLD1	1.01 ± 0.015	0.997 ± 0.014	1 ± 0.042	0.959 ± 0.033	0.842 ± 0.09	0.445 ± 0.091	0.55	0.518	0.389	0.137	0.0235	0.00897
DU145	0.999	0.996	0.96	0.874	0.618	0.287	–	–	–	–	–	–
EFO21	1.05	1.04	0.909	0.667	0.352	0.141	–	–	–	–	–	–
EJ28	1.05	1.02	1.02	0.945	0.824	0.554	–	–	–	–	–	–
HCT15	0.998 ± 0.048	0.896 ± 0.056	1.002 ± 0.0063	0.964 ± 0.028	0.792 ± 0.062	0.301 ± 0.074	0.555	0.482	0.298	0.147	0.0634	0.0278
HEPG2	0.956	0.977	0.977	0.91	0.603	0.211	–	–	–	–	–	–
HL60	0.998	0.975	0.929	0.808	0.526	0.238	–	–	–	–	–	–
HS578T	1.01	1.01	1.02	0.947	0.581	0.182	–	–	–	–	–	–
HS729	1.05	1.06	1.02	0.867	0.716	0.422	–	–	–	–	–	–
HT29	0.978 ± 0.029	0.9825 ± 0.0091	0.974 ± 0.023	0.906 ± 0.03	0.658 ± 0.021	0.252 ± 0.0096	0.885	0.857	0.642	0.152	0.0553	0.0433
HT1080	1.08	1.09	1.08	1.11	1.11	1	–	–	–	–	–	–
IGROV1	1.02	1.02	0.965	0.789	0.22	-0.0182	–	–	–	–	–	–
J82	1.02	1.03	0.991	0.876	0.64	0.377	–	–	–	–	–	–
JIMT1	0.999	1.01	0.999	0.906	0.561	0.232	–	–	–	–	–	–
